Consider one compound from patent US7527021B2, “Non-invasive drug self-administration system for animals” (University of Virginia Patent Foundation, priority 2003, dated 2009).

A short description of data set [1]: Cocaine levels in the brains of self-administering animals (ELISA). The following applies: self-administered aerosol. Here is the method: Animals were allowed access to the self administration system of the present invention and the number of nosepokes was recorded using two different concentrations of cocaine (1.8 or 21 mg/kg/spray). Animals were sacrificed within 20 min (animals 3,4) or 1 hr (animals 1,2) of last nosepoke, and all nosepokes occurred within less than 1 hr.
(In general: ELISA stands for enzyme-linked immunosorbent assay.)

For data set [2] the following is noted: 20/mg/kg cocaine via IP injection; cited from earlier work.
In data set [3] the test system is mice. The data set can be described thus: Intranasal aerosol cocaine self-administration, nose-poke frequency (FIG. 4). The following applies: intra-nasal aerosol; inverted-U dose response, less self-administration at higher and lower concentrations; 4 h sessions.

As for `COC(=O)[C@H]1[C@@H](OC(=O)c2ccccc2)C[C@@H]2CC[C@H]1N2C` [cocaine], the “Cocaine conc in brain” value in data set [1] (animal 1, 6 pokes × 1.8 mg/kg/spray, sacrificed within 1 hr of last nosepoke) is 0.08 (mg/kg); in data set [1] (animal 2, 4 pokes × 1.8 mg/kg/spray, sacrificed within 1 hr of last nosepoke), 0.28 mg/kg; in data set [1] (animal 3, 1 poke × 21.0 mg/kg/spray, sacrificed within 20 min of last nosepoke) it was 1.03 mg/kg; in data set [1] (animal 4, 2 pokes × 21.0 mg/kg/spray, sacrificed within 20 min of last nosepoke) it was 2.96 mg/kg. In data set [2], the “cocaine in the brain” value is recorded as 0.96 mg/kg. In addition, the “cocaine concentration at which animals nose-poke most frequently” value in data set [3] is around 0.9 mg/kg/infusion.
